Results: patent US5039691A, “5-(1-(imidazol)methyl)-3,3-disubstituted-2(3H)furanone derivatives” (Marion Merrell Dow Inc., priority 1990, dated 1991)
Structures can show the parent of a compound that is named as a salt.

Columns and labels:
[1] = tested on: isolated guinea pig ileum; conditions: Kolokouris et al., Ann. Pharm. Fr. 1985; cited from earlier work
Male Guinea pigs = assay: Primary in vivo bronchodilator assay for muscarinic antagonists (reversal of carbachol bronchoconstriction); set-up: species or system guinea pig; conditions: Cavia porcellus, iv, cumulative dose causing 50% reversal of carbachol bronchoconstriction
Method: PRIMARY IN VIVO BRONCHODILATOR ASSAY FOR MUSCARINIC ANTAGONISTS Male Guinea pigs were anesthetized by urethane. The trachea, carotid artery and jugular vein were cannulated. Animals were ventilated with room air at a constant rate and volume. Airway pressure was measured from a side port of the tracheal catheter, and blood pressure and heart rate were monitored as well. After a stable baseline period, an aerosol of carbachol was administered via an ultrasonic nebulizer. Once the bronchoconstrictor response plateaued, test compound was given in increasing i.v. doses to cause graded, cumulative reductions in airway pressure. If more than a 50% reversal of bronchoconstriction occurred, an ED50 value for bronchodilator potency was calculated using a probit analysis. The ED50 was defined as the cumulative i.v. dose that caused a 50% reversal of bronchoconstriction.

[2] = molecular target: T1, muscarinic cholinergic receptors on intestinal (ileal-longitudinal) smooth muscle (Cavia porcellus, UniProt H0W1Z3); assay: Antimuscarinic test: antagonism of carbachol contraction of isolated ileum (Muscarinic Antagonist Activity, Ileum); set-up: species or system guinea pig; conditions: carbachol agonist, 37° C.
T1 construct: The longitudinal muscle, with the myenteric plexus attached, is separated from the underlying circular muscle; from tissue; host or cells: guinea pig ileum, longitudinal smooth muscle with myenteric plexus

[3] = molecular target: T2, muscarinic cholinergic receptors on bladder detrusor muscle (Cavia porcellus, UniProt H0W1Z3); assay: Antimuscarinic test: antagonism of carbachol contraction of isolated bladder (Muscarinic Antagonist Activity, Bladder); set-up: species or system guinea pig; conditions: bladder detrusor strips, carbachol agonist, 35° C.
T2 construct: The peritoneal cavity is opened and the bladder is held lightly at its apex; from tissue; host or cells: guinea pig urinary bladder, detrusor strips without mucosa
Method: ANTIMUSCARINIC TEST PROTOCOL
PREPARATION OF BLADDER FOR TESTING
Male albino guinea pigs are killed by decapitation or cervical dislocation. The peritoneal cavity is opened and the bladder is held lightly at its apex, stretched gently, and fat is lifted with fine forceps and dissected away in situ with blunt-tipped scissors as close to the surface of the bladder as possible. The tissue is placed in a latex-bottomed Petri dish that contains a modified Krebs solution (133 mM NaCl, 1.3 mM […], 16.3 mM NaHCO3, 4.7 mM KCl, 0.6 mM MgSO4.7H2 O, 2.5 mM CaCl2.2H2 O, 7.7 mM dextrose) and cut above the neck. The bladder is collapsed into a flat pouch, which is opened by two lateral incisions and unfolded to give a rectangular sheet of tissue approximately 2 cm long and 1 cm wide. The sheet is gently stretched and pinned to the bottom of the Petri dish. Blunt separation of the mucosa, which is visible as a looser superficial pink layer, is started at one end by carefully inserting the blades of micro dissecting scissors between the mucosa and muscle layers and using gentle spreading of the blades, together with steady traction with forceps to tease the two layers apart. Clean removal of the mucosa is usually possible without any fraying or tearing of the underlying muscle. The removal of the mucosa is considered essential for improving oxygen supply to the preparation and for providing better access on both sides of the thin muscle sheet for administered drugs (Ambache and Zar, J. Physiol. 210:671, 1970). The sheet is trimmed, if necessary, and cut longitudinally into four strips.
The strips are tied off with 5-0 silk suture and are then suspended in 10 mL water-jacketed glass tissue baths containing the Krebs solution maintained at 35° C. and aerated with 95% O2 /5% CO2. The suture connects each tissue to an isometric force-displacement transducer (Grass or Gould) coupled to a physiograph. Each preparation is suspended under a resting tension of 0.5 g and allowed to equilibrate for 36 minutes. During this period, the baths are emptied and filled every 12 minutes with 10 mL of warm Krebs buffer. At the end of this period, each muscle strip is conditioned by adding 10 μM carbachol to the baths. The drug remains in contact with each tissue for 1-2 minutes and then is removed by four rapid rinses of 10 mL of warm Krebs buffer. The preparations are allowed to recover for an additional 12 minutes before being used in experiments.
Carbachol is dissolved in saline to produce 2×10^-2 M stock concentrations. Serial dilutions (1:10) in saline or water are made from the stock solution. Appropriate volumes of these solutions are added cumulatively to the 10 mL tissue baths in order to obtain the desired bath concentrations.
PREPARATION OF TEST COMPOUNDS
Compounds that are soluble in water or saline are dissolved in these solvents to produce 2×10^-2 or 2×10^-3 M stock concentrations. Small amounts of IN HCl, NaOH, or 95% ethanol may be added for those agents that are not soluble in water or saline alone. Serial dilutions (1:10) in saline or water are made from the stock solution. Compounds that are insoluble in aqueous solvents are dissolved in dimethylsulfoxide (DMSO) to produce 4×10^-2 M stock solutions. Serial dilutions (1:10) in water are made from the stock solution. Other solvents may be used when appropriate and will be specifically described in the experimental procedure. Appropriate volumes are then added to the baths in order to obtain the desired bath concentrations.
Appropriate volumes of carbachol solutions are cumulatively added to the 10 mL tissue baths to increase the concentration of carbachol in the bath step-by-step without washing out after each single dose. With each concentration step, the tissue contracts isometrically. The next concentration is added only after the preceding contraction has reached a steady value. […]

Solubility = assay type: physicochemical
mammalian heart tissue = conditions: Pohland, S. African Patent 68 05,631; cited from earlier work

T1 sequence (H0W1Z3 1-590): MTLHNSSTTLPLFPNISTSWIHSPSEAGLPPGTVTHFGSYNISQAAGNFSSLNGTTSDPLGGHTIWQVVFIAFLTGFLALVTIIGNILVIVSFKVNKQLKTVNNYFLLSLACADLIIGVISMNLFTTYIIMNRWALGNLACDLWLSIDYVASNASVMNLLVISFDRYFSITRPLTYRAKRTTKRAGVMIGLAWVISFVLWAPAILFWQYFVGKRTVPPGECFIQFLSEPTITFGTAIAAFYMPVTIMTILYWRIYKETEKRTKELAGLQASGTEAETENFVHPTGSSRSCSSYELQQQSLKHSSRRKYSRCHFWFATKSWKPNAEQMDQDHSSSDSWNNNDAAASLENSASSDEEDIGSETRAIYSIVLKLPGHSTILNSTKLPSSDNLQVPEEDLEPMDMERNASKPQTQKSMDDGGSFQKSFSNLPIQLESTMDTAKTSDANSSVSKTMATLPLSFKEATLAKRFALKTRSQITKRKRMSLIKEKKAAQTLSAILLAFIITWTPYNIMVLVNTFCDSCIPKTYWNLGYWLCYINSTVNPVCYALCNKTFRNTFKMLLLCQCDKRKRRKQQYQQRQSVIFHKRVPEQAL
T2 sequence (H0W1Z3 1-590): as above

| Kb [2] [nM] | Kb [3] [nM] | SMILES | ED50 (Male Guinea pigs) [mg/kg] | also measured |
| --- | --- | --- | --- | --- |
|  |  | CN(C)CC1CC(c2ccccc2)(c2ccccc2)OC1=O (stereo not drawn) [3-[(dimethylamino)methyl]-4,5-dihydro-5,5-diphenyl-2(3H)furanone] |  | prevents contractions of isolated guinea pig ileum (spasmolytic) [1]: prevents contractions of isolated guinea pig ileum |
| 8 | 5 | CCc1n(CC2CC(c3ccccc3)(c3ccccc3)C(=O)O2)cc[n+]1C (stereo not drawn) [5-[1-(2-Ethyl-3-methylimidazol)methyl]-4,5-dihydro-3,3-diphenyl-2(3H)furanone bromide] | 0.13 |  |
| 68 | 86 | CCc1nccn1CC1CC(c2ccccc2)(c2ccccc2)C(=O)O1 (stereo not drawn) [5-[1-(2-Ethylimidazol)methyl]-4,5-dihydro-3,3-diphenyl-2(3H)furanone hydrochloride] | 4 |  |
| 31 |  | CC(C)c1nccn1CC1=CC(c2ccccc2)(c2ccccc2)C(=O)O1 [5-[1-(2-Isopropylimidazol)methyl]-3,3-diphenyl-2(3H)furanone hydrochloride hydrate] |  | solubility (Solubility; in 0.5N HCl and 1 drop of Tween 80): > 1000 µg/mL |
| 30 | 33 | CC(C)c1nccn1CC1CC(c2ccccc2)(c2ccccc2)C(=O)O1 (stereo not drawn) [5-[1-(2-Isopropylimidazol)methyl]-4,5-dihydro-3,3-diphenyl-2(3H)furanone hydrochloride] | 0.83 |  |
| 107 | 238 | Cc1nccn1CC1CC(c2ccccc2)(c2ccccc2)C(=O)O1 (stereo not drawn) [5-[1-(2-Methylimidazol)methyl]-4,5-dihydro-3,3-diphenyl-2(3H)furanone] | 5.5 |  |
| 21 | 70 | CCCc1nccn1CC1CC(c2ccccc2)(c2ccccc2)C(=O)O1 (stereo not drawn) [5-[1-(2-n-Propylimidazol)methyl]-4,5-dihydro-3,3-diphenyl-2(3H)furanone hydrochloride] | 1.3 |  |
| 23 | 11 | CCCc1n(CC2CC(c3ccccc3)(c3ccccc3)C(=O)O2)cc[n+]1C (stereo not drawn) [5-[1-(3-Methyl-2-n-propylimidazol-methyl]-4,5-dihydro-3,3-diphenyl-2(3H)furanone iodide] | 0.11 |  |
| 322 | 151 | C[n+]1ccn(CC2CC(c3ccccc3)(c3ccccc3)C(=O)O2)c1 (stereo not drawn) [5-[1-(3-Methylimidazol)methyl]-4,5-dihydro-3,3-diphenyl-2(3H)furanone bromide hydrate] | 1 |  |
| 140 |  | O=C1OC(Cn2cnc(-c3ccccc3)c2)CC1(c1ccccc1)c1ccccc1 (stereo not drawn) [5-[1-(4-Phenylimidazol)methyl]-4,5-dihydro-3,3-diphenyl-2(3H)furanone hydrochloride hydrate] |  | Insol. (printed in the bronchodilator ED50 column) (Solubility; bronchodilator test, i.v.): Insol. |
| 253 | 339 | CCOCc1n(C)cc[n+]1CC1CC(c2ccccc2)(c2ccccc2)C(=O)O1 (stereo not drawn) [5-[1-(Ethoxymethyl-3-methylimidazol)methyl]-4,5-dihydro-3,3-diphenyl-2(3H)furanone iodide] | > 10 |  |
|  |  | CCN(CC)CC1CC(c2ccccc2)(c2ccccc2)C(=O)O1 (stereo not drawn) [5-[(Diethylamino)-methyl]-4,5-dihydro-3,3-diphenyl-2(3H)furanone] |  | antiarrhythmic effectiveness in mammalian heart tissue (mammalian heart tissue): antiarrhythmic effectiveness in mammalian heart tissue |
| 21 | 129 | CCc1nccn1C[C@H]1CC(c2ccccc2)(c2ccccc2)C(=O)O1 [(R)-(+)-5-[1-(2-Ethylimidazol)methyl]-4,5-dihydro-3,3-diphenyl-2(3H)furanone hydrochloride] |  |  |
| 10 | 15 | CC(C)c1nccn1C[C@H]1CC(c2ccccc2)(c2ccccc2)C(=O)O1 [(R)-(+)-5-[1-(2-Isopropylimidazol)methyl]-4,5-dihydro-3,3-diphenyl-2(3H)furanone hydrochloride] |  |  |
| 169 | 350 | CCc1nccn1C[C@@H]1CC(c2ccccc2)(c2ccccc2)C(=O)O1 [(S)-(-)-5-[1-(2-Ethylimidazol)methyl]-4,5-dihydro-3,3-diphenyl-2(3H)furanone hydrochloride] |  |  |
